This assay concerns the target T1, full length human recombinant glucocorticoid receptor (Homo sapiens, UniProt P04150).
T1 construct: It contains some partially purified full length human recombinant glucocorticoid receptor; purchased Panvera/Invitrogen PV4302
T1 sequence (P04150 1-777): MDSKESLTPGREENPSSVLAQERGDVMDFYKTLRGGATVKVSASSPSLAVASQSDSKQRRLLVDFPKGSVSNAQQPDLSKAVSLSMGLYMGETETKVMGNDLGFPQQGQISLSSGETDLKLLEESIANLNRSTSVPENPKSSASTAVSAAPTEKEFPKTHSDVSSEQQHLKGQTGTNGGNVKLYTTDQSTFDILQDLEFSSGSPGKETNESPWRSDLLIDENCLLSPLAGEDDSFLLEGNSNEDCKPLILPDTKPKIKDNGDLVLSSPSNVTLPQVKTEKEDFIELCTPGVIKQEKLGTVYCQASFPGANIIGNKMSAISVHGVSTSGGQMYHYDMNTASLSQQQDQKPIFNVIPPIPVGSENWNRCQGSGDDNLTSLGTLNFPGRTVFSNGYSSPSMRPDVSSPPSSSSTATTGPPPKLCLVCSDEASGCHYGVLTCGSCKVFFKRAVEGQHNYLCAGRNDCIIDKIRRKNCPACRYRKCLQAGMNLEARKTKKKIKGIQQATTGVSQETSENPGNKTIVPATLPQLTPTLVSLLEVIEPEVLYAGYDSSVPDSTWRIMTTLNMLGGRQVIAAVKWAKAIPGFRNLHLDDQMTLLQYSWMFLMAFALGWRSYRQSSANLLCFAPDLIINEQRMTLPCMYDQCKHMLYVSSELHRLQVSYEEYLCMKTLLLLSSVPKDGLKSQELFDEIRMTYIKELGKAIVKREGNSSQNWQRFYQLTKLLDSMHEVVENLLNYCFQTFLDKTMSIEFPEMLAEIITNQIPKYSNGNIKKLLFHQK
The assay is described as follows: Glucocorticoid Receptor Binding Assay (Glucocorticoid Receptor Competitor Assay far red kit, fluorescence polarization). As to conditions: competition with fluorescent GR ligand Fluormone GS Far Red, 3 hours at 22° C., pH 7.4; Ki calculated from IC50 by Cheng-Prusoff. The procedure, abridged:
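Compounds in serial dilution (from intermediate 4.2% DMSO stock) displace Fluormone GS Far Red from full-length human recombinant GR with stabilizing peptide, pH 7.4, incubated 3 hours at 22° C dark. Polarized fluorescence (610–660 nm) gives IC50 via sigmoidal fit, converted to Ki by Cheng-Prusoff.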

For `C[C@H](c1ccc(-c2ccc(C(=O)O)cn2)cc1Cl)[C@@](O)(c1ccc2oc(=O)n(C)c2c1)C(F)(F)F` (relative stereo) [Example 128, 6-{3-Chloro-4-[3,3,3-trifluoro-2-hydroxy-1-methyl-2-(3-methyl-2-oxo-2,3-dihydro-benzooxazol-5-yl)-propyl]-phenyl}-nicotinic acid], the Ki was 1.7 nM.
Regarding `CCN1C(=O)COc2ccc([C@](O)([C@H](C)c3ccc(Oc4cc(C(F)(F)F)c(C(=O)O)cn4)cc3Cl)C(F)(F)F)cc21` (relative stereo) [Example 68, 6-{3-Chloro-4-[2-(4-ethyl-3-oxo-3,4-dihydro-2H-benzo[1,4]oxazin-6-yl)-3,3,3-trifluoro-2-hydroxy-1-methyl-propyl]-phenoxy}-4-trifluoromethyl-nicotinic acid], the Ki was 59.8 nM.
In the case of `COC(=O)c1ccc(Oc2ccc([C@@H](C)[C@@](O)(c3ccc4oc(=O)n(C)c4c3)C(F)(F)F)c(Cl)c2)nc1` (relative stereo) [Example 174, 6-{3-Chloro-4-[3,3,3-trifluoro-2-hydroxy-1-methyl-2-(3-methyl-2-oxo-2,3-dihydro-benzooxazol-5-yl)-propyl]-phenoxy}-nicotinic acid methyl ester], the inhibitory constant (Ki) is 2 nM.
For the compound `C[C@H](c1ccc(-c2ccc(F)c(C(=O)O)c2)cc1Cl)[C@@](O)(c1ccc(C#N)cc1)C(F)(F)F` (stereo in doubt) [Example 151, 3′-Chloro-4′-[2-(4-cyano-phenyl)-3,3,3-trifluoro-2-hydroxy-1-methyl-propyl]-4-fluoro-biphenyl-3-carboxylic acid], the Ki is 18.5 nM.
With `C[C@@H](c1cc(Oc2ccc(Cl)c(C(=O)O)c2)ccc1Cl)[C@](O)(c1ccc2c(c1)N(C)C(=O)CO2)C(F)(F)F` (relative stereo) [Example 15, 2-Chloro-5-{4-chloro-3-[3,3,3-trifluoro-2-hydroxy-1-methyl-2-(4-methyl-3-oxo-3,4-dihydro-2H-benzo[1,4]oxazin-6-yl)-propyl]-phenoxy}-benzoic acid], the Ki is 3.7 nM.
Then `C[C@H](c1ccc(-c2ccc(C(=O)O)nc2)cc1Cl)[C@@](O)(c1ccc2c(c1)n(C)c(=O)n2C)C(F)(F)F` (relative stereo) [Example 84, 5-{3-Chloro-4-[2-(1,3-dimethyl-2-oxo-2,3-dihydro-1H-benzoimidazol-5-yl)-3,3,3-trifluoro-2-hydroxy-1-methyl-propyl]-phenyl}-pyridine-2-carboxylic acid], with 11.9 nM; and `C[C@@H](c1cc(OCc2ccc(C(=O)O)cc2)ccc1Cl)[C@](O)(c1ccc2c(c1)N(C)C(=O)CO2)C(F)(F)F` (relative stereo) [Example 2, 4-{4-Chloro-3-[3,3,3-trifluoro-2-hydroxy-1-methyl-2-(4-methyl-3-oxo-3,4-dihydro-2H-benzo[1,4]oxazin-6-yl)-propyl]-phenoxymethyl}-benzoic acid], with 2 nM.
As for `COC(=O)c1cnc(Oc2ccc([C@@H](C)[C@@](O)(c3ccc4c(c3)N(C)C(=O)CO4)C(F)(F)F)c(Cl)c2)nc1C(F)(F)F` (racemic) [Example 225, 2-{3-Chloro-4-[3,3,3-trifluoro-2-hydroxy-1-methyl-2-(4-methyl-3-oxo-3,4-dihydro-2H-benzo[1,4]oxazin-6-yl)-propyl]-phenoxy}-4-trifluoromethyl-pyrimidine-5-carboxylic acid methyl ester], the Ki is 7.8 nM.
Then `C[C@H](c1ccc(-c2ccnnc2)cc1Cl)[C@@](O)(c1ccc2oc(=O)n(C)c2c1)C(F)(F)F` (stereo in doubt) [Example 195, 5-[2-(2-Chloro-4-pyridazin-4-yl-phenyl)-1-hydroxy-1-trifluoromethyl-propyl]-3-methyl-3H-benzooxazol-2-one], with 0.8 nM; and `COC(=O)c1ccc(Oc2ccc([C@@H](C)[C@@](O)(c3ccc4oc(=O)n(C)c4c3)C(F)(F)F)c(Cl)c2)cc1F` (relative stereo) [Example 176, 4-{3-Chloro-4-[3,3,3-trifluoro-2-hydroxy-1-methyl-2-(3-methyl-2-oxo-2,3-dihydro-benzooxazol-5-yl)-propyl]-phenoxy}-2-fluoro-benzoic acid methyl ester], with 1.7 nM.
On to `COC(=O)c1ccc(Oc2ccc([C@H](C)[C@](O)(c3cc(C)c(C#N)c(C)c3)C(F)(F)F)c(Cl)c2)nc1` (stereo in doubt) [Example 147, 6-{3-Chloro-4-[2-(4-cyano-3,5-dimethyl-phenyl)-3,3,3-trifluoro-2-hydroxy-1-methyl-propyl]-phenoxy}-nicotinic acid methyl ester], for which the inhibitory constant (Ki) was 2.8 nM.
As for `C[C@@H](c1ccc(-c2ccc(F)c(OCC(=O)O)c2)cc1Cl)[C@](O)(c1cc(F)c2c(c1)N(C)C(=O)CO2)C(F)(F)F` (stereo in doubt) [Example 48, {3′-Chloro-4-fluoro-4′-[3,3,3-trifluoro-2-(8-fluoro-4-methyl-3-oxo-3,4-dihydro-2H-benzo[1,4]oxazin-6-yl)-2-hydroxy-1-methyl-propyl]-biphenyl-3-yloxy}-acetic acid], the Ki was 1.3 nM.
As for `C[C@H](c1ccc(Oc2ccc(Cl)cc2C(=O)O)cc1Cl)[C@@](O)(c1ccc2c(c1)n(C)c(=O)n2C)C(F)(F)F` (stereo in doubt) [Example 100, 5-Chloro-2-{3-chloro-4-[2-(1,3-dimethyl-2-oxo-2,3-dihydro-1H-benzoimidazol-5-yl)-3,3,3-trifluoro-2-hydroxy-1-methyl-propyl]-phenoxy}-benzoic acid], the Ki is 1.9 nM.
Regarding `COC(=O)c1ccc(Oc2ccc([C@H](C)[C@](O)(c3cc4c(cc3F)OCC(=O)N4C)C(F)(F)F)c(Cl)c2)cc1Cl` (relative stereo) [Example 138, 2-Chloro-4-{3-chloro-4-[3,3,3-trifluoro-2-(7-fluoro-4-methyl-3-oxo-3,4-dihydro-2H-benzo[1,4]oxazin-6-yl)-2-hydroxy-1-methyl-propyl]-phenoxy}-benzoic acid methyl ester], the Ki was 0.6 nM.
In the case of `CCOC(=O)c1cc(-c2ccc([C@H](C)[C@](O)(c3ccc4c(c3)N(C)C(=O)CO4)C(F)(F)F)c(Cl)c2)ccc1Cl` (relative stereo) [Example 39, 4,3′-Dichloro-4′-[3,3,3-trifluoro-2-hydroxy-1-methyl-2-(4-methyl-3-oxo-3,4-dihydro-2H-benzo[1,4]oxazin-6-yl)-propyl]-biphenyl-3-carboxylic acid ethyl ester], the Ki is 0.7 nM.
Regarding `C[C@@H](c1ccc(-c2ccc(CC(=O)O)cc2)cc1Cl)[C@](O)(c1ccc2c(c1)N(C)C(=O)CO2)C(F)(F)F` (relative stereo) [Example 37, {3′-Chloro-4′-[3,3,3-trifluoro-2-hydroxy-1-methyl-2-(4-methyl-3-oxo-3,4-dihydro-2H-benzo[1,4]oxazin-6-yl)-propyl]-biphenyl-4-yl}-acetic acid], the Ki was 6.6 nM.
Turning to `COC(=O)c1cnc(Oc2ccc([C@@H](C)[C@@](O)(c3ccc4c(c3)N(C)C(=O)CO4)C(F)(F)F)c(Cl)c2)c(Cl)c1` (racemic) [Example 212, 5-Chloro-6-{3-chloro-4-[3,3,3-trifluoro-2-hydroxy-1-methyl-2-(4-methyl-3-oxo-3,4-dihydro-2H-benzo[1,4]oxazin-6-yl)-propyl]-phenoxy}-nicotinic acid methyl ester], the inhibitory constant (Ki) was 1 nM.

A word on the Ki: it is the equilibrium dissociation constant of an inhibitor or competing ligand from its target.

Source of the values: US8450313B2, “2,3-diaryl- or heteroaryl-substituted 1,1,1-trifluoro-2-hydroxypropyl compounds” (Hoffmann-La Roche Inc., priority 2009, dated 2013).
